“Also recorded” adds a separate entry of the source.
Tests used:
[1] = Toxicity study after repeat nebulized dosing (weight, serum ALT/AST); type: in vivo, mice; settings: repeated nebulized delivery
Method: (FIG. 6A). […] To determine whether the protein expression in the lung could be controlled by nebulized dose, a dose-response study of the three LNPs was performed, whereby mice were nebulized with 0.25, 0.5, or 1 mg of mRNA. For all three LNPs, there was an increase in lung luminescence corresponding to increasing dose (FIG. 14A). […] For mRNA protein-replacement therapies to treat pulmonary diseases like cystic fibrosis, repeat dosing of the therapeutic will be required unless genome editing is possible. Therefore, the ability to repeat-dose nebulized LNPs was characterized by administration of 1 mg of FFL mRNA every 72 h, with measurement of lung luminescence 6 h after each nebulization. For all LNPs, no loss in lung luminescence was observed over the course of the three administrations (FIG. 6B). Additionally, repeated delivery of the nebulized LNPs was well tolerated as evidenced by the lack of weight loss (FIG. 27) and normal liver enzyme levels (FIG. 14B) in mice.
Toxicity study, 48 h after the third nebulization of FFL mRNA in the repeat dosing study, mice were bled and sera was isolated using microcentrifugation in BD SST microtainers. Serum was analyzed for ALT and AST levels (Custom lipid panel 62149, IDEXX Bioanalytics).

[2] = tested on: ALI cultures derived from primary human bronchial epithelial cells; settings: for mRNA delivery in small and large airway ALI cultures, lipids and tail/headgroup variants: handmixed LNPs, not nebulized; for mRNA delivery to small airway ALI cultures: screen of 12 top-performing A549 LNPs
Method: Air-liquid interface (ALI) cultures derived from primary human bronchial epithelial cells were selected. ALI cultures are grown on porous Transwell inserts such that, upon reaching confluence, media can be removed from the top (apical) side of the insert and the cells can be fed from the bottom, basolateral, side (FIG. 12A). This enables recapitulation of the conditions of the native bronchial epithelium, where the apical side of the cells is exposed to the air while the basolateral side is bathed in nutrients.
Primary large airway cells (University of North Carolina at Chapel Hill MLI Tissue Procurement and Cell Culture Core) and primary small airway cells (ATCC) were expanded using PneumaCult-ExPlus (StemCell) according to the instructions for the media and plated for ALI cultures at P3 and P4 respectively.
ALI cultures were plated either onto 0.4 μm pore, 6.5 mm diameter PET Transwell inserts for 24-well plates (Corning) or 0.4 μm pore polycarbonate inserts for 96-well plates (Corning). The 24-well plates were used for histology, the two-week transfection timecourse, and TEER measurements; 96-well plates were used for all other experiments, 33,000 cells/well were seeded in the 24 well inserts and 15,000 cells/well were seeded in the 96-well plate inserts.
Per manufacturer instructions, cultures were grown to confluence with both apical and basolateral (ExPlus) media for 2-4 days before airlift. […] Upon airlift, apical media was removed and basolateral media was changed to PneumaCult-ALI (for large airway cells) or ALI-S (for small airway cells) media (StemCell). […] Media was changed 3 times/week and cells were not transfected until at least 20 days of ALI culture.
In vitro transfection experiments. […] The next day. […] For ALI cultures.

[3] = tested on: mouse lung; experiment: Nebulized FFL mRNA delivery to mice, lung bioluminescence (IVIS); type: in vivo, C57BL/6 mice; settings: for Nebulized lung delivery compared between lipids/NPs: 1 mg dose via nose cone, 6 hr, T1-5 formulated with bPEG20K and NaAc; for In vivo performance via nebulization vs C12-200: 1 mg mRNA dose (FIG. 6A); for Nebulized delivery in NaAc buffer with bPEG20K vs PBS with no excipient: T1-5 LNPs
Method: In vivo nebulized delivery. In vivo nebulized delivery of mRNA to C57BL/6 mice (Jackson Laboratory) was performed either in a whole-body exposure chamber or a nose-only exposure chamber (CH Technologies) where specified. LNPs at 0.3 mg/mL of mRNA were loaded into the nebulizer at required volumes with 2% w/v excipients where specified. For the whole-body exposure chamber, the nebulizer was connected to the chamber via a tee and an oxygen flow rate of 15 SCFH was used to direct aerosol into the chamber. For the nose-only exposure chamber, mice were immobilized in restrainers and the restrainers connected to the chamber. A flow rate of 2 SLPM of oxygen was used and pressure within the chamber was maintained at −0.1 din. H2O.
In vivo bioluminescence, 6 h after nebulization, unless otherwise noted, mice were injected intraperitoneally with 0.2 ml XenoLight D-luciferin (10 mg/mL in DPBS, PerkinElmer). For whole-body imaging, mice were anesthetized in a ventilated anesthesia chamber with 2.5% isofluorane in oxygen and imaged 10 min after luciferin injection. Otherwise, mice were sacrificed 10 min after luciferin injection and organs were collected for imaging. Luminescence was measured with an in vivo imaging system (IVIS, PerkinElmer) and quantified using the Living Image software (PerkinElmer).

[4] = tested on: nose; experiment: Nebulized FFL mRNA delivery to mice, luminescence in nose; type: in vivo
[5] = tested on: A549 cells; experiment: In vitro FFL mRNA transfection of A549 cells (Bright-Glo); settings: microfluidically mixed, nebulized with bPEG20K and NaAc
[6] = LNP size by DLS before and after nebulization; type: physicochemical; settings: nebulized in the presence of bPEG20K and NaAc buffer
Method: Nebulization of nanoparticles. For characterizing effects of nebulization on LNP size, encapsulation efficiency, and transfection efficiency, 100 uL of LNPs at 150 ng/uL were loaded into an Aeroneb vibrating mesh nebulizer (Aerogen) and nebulized into 1.5 mL microcentrifuge tubes. Where specified, 2% w/v of excipients were added to the LNP formulation following dialysis and immediately prior to nebulization.

[7] = tested on: lung epithelium; experiment: Nebulized Cre mRNA delivery to Ai14 mice, histology count of tdTomato+ airway cells
[8] = nebulized, 1 mg dose, nose cone
[9] = Cre mRNA nebulized over 3 doses
[10] = all cells, Cre mRNA nebulized over 3 doses

| SMILES | Tolerability of nebulized LNPs [1] | mRNA delivery in small and large airway ALI cultures, lipids and tail/headgroup variants [2] | mRNA delivery to small airway ALI cultures [2] | Nebulized lung delivery compared between lipids/NPs [3] | In vivo performance via nebulization vs C12-200 [3] | Nebulized delivery in NaAc buffer with bPEG20K vs PBS with no excipient [3] | Protein expression / mRNA delivery in the nose [4] | FFL delivery to A549 cells, post-nebulized LNPs [5] | Lung luminescence ([3]; 6 hr after 1 mg dose via nose cone, lipids T1-5 formulated with bPEG20K and NaAc) | Fold improvement of IR-117-17 lung mRNA delivery over NLD1 [3, 8] [fold] | Improvement of IR-117-17 lung mRNA delivery over polymeric PBAE nanoparticle [3, 8] | Average diameter after nebulization [6] [nm] | Small airways with at least 1 transfected cell ([7]; 140/151 airways) [%] | Club cells transfected, large airway [7, 9] [%] | Club cells transfected, small airway [7, 9] [%] | Transfection of large airway cells (average) [7, 10] [%] | Transfection of small airway cells (average) [7, 10] [%] | Transfection of individual stretches of airway ([7]; some stretches) |
| --- | --- | --- | --- | --- | --- | --- | --- | --- | --- | --- | --- | --- | --- | --- | --- | --- | --- | --- |
| CCCCCCCC/C=C\CCCCCCCC(=O)OCCCCCC(O)C(CCCCOC(=O)CCCCCCC/C=C\CCCCCCCC)CN(C)CCCn1cccn1 (stereo not drawn) [IR-19-Py, 5-(((3-(1H-pyrazol-1-yl)propyl)(methyl)amino)methyl)-6-hydroxyundecane-1,11-diyl dioleate] | no apparent toxicity | outperformed other screened lipids in ALI cultures | excellent performance | statistically comparable delivery to C12-200 | performed comparably to C12-200 | improves nebulized delivery of both LNPs compared to PBS | significantly outperform state-of-the-art mRNA delivery formulations; also recorded: particularly high and extended protein expression was observed in the nose | – | – | – | – | – | – | – | – | – | – | – |
| CCCCC/C=C\C/C=C\CCCCCCCC(=O)OCCCCCC(O)C(CCCCOC(=O)CCCCCCC/C=C\C/C=C\CCCCC)CNCCCN(CCCC)CCCC (stereo not drawn) [IR-117-17, 5-(((3-(dibutylamino)propyl)amino)methyl)-6-hydroxyundecane-1,11-diyl (9Z,9′Z,12Z,12′Z)-bis(octadeca-9,12-dienoate)] | no apparent toxicity | outperformed other screened lipids in ALI cultures | excellent performance | significantly outperform state-of-the-art mRNA delivery formulations; also recorded: significantly outperformed C12-200 | outperformed C12-200 | improves nebulized delivery of both LNPs compared to PBS | – | effective | 1.1×10^6 p s^−1 cm^−2 sr^−1 | 300 | twofold; also recorded: two-fold | 116 | 93 | 8.4 | 7.6 | 10.3 | 8.8 | near-complete transfection |

Reference: US12583817B2, “Ionizable lipids and compositions and uses thereof” (Massachusetts Institute of Technology, priority 2021, dated 2026)
